Key:
[1] = biological target: T1, Dual specificity protein kinase TTK (Homo sapiens) (UniProt P33981); conditions: at 10 µM
T1 sequence (whole entry): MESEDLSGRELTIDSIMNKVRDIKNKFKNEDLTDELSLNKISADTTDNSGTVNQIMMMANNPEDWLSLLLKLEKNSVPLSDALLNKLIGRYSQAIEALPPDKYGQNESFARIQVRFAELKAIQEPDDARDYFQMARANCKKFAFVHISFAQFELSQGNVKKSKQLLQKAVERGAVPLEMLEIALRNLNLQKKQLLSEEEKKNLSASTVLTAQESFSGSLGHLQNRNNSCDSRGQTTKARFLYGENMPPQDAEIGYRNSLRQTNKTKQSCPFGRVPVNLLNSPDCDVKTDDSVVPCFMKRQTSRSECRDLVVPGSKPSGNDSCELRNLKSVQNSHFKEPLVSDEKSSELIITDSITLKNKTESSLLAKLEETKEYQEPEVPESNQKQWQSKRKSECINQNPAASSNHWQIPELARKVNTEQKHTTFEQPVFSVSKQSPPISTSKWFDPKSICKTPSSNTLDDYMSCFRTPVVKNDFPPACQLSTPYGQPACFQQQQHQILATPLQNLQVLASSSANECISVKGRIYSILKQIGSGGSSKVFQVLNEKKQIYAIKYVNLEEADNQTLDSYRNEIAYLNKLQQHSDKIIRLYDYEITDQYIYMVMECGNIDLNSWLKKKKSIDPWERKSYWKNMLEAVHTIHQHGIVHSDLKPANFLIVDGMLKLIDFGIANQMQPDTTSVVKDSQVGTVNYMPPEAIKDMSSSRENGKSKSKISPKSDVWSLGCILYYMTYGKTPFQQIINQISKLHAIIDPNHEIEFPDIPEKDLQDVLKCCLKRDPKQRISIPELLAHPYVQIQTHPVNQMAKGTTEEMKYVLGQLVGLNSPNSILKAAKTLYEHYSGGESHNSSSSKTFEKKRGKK

[2] = biological target: Mitogen-activated protein kinase 4 (Homo sapiens) (UniProt P31152); conditions: at 10 µM
Mitogen-activated protein kinase 4 (Homo sapiens), sequence (P31152 whole entry): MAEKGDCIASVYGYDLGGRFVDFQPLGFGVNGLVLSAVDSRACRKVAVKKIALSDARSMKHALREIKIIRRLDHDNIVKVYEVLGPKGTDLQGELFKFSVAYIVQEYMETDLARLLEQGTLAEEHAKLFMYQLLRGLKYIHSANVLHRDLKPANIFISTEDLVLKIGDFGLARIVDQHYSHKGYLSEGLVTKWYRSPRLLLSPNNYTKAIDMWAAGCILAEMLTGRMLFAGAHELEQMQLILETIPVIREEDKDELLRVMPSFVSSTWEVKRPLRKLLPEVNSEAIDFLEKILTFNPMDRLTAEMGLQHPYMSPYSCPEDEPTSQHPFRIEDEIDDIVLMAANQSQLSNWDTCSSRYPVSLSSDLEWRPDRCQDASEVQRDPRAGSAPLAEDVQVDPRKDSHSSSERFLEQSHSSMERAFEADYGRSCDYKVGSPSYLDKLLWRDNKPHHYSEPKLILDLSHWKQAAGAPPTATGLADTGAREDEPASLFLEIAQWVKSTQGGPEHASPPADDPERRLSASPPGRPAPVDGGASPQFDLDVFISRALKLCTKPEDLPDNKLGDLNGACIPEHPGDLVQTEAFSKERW

[3] = biological target: Cyclin-dependent kinase 14 (Homo sapiens) (UniProt O94921); test: Selectivity interaction (KinomeScan (DiscoverX)) EUB0000607a CDK14; conditions: at 10 µM
Cyclin-dependent kinase 14 (Homo sapiens), sequence (O94921 whole entry): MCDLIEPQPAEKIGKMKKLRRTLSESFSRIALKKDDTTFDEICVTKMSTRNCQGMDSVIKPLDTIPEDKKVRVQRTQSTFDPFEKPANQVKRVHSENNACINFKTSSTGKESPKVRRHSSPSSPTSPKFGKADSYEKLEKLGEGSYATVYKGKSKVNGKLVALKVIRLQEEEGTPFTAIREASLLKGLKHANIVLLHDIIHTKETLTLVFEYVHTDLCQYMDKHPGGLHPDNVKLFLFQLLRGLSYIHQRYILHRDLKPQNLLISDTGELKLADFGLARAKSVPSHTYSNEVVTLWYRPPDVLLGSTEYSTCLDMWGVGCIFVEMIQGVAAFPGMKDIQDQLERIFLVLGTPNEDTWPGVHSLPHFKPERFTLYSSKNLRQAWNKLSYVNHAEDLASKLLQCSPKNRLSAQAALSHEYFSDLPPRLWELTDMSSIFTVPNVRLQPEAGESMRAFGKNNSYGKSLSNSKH

[4] = biological target: T2, Ephrin type-B receptor 2 (Homo sapiens) (UniProt P29323); test: Selectivity interaction (SelectScreen profiling (Invitrogen)) EUB0000607a EPHB2; conditions: at 2 µM
T2 sequence (whole entry): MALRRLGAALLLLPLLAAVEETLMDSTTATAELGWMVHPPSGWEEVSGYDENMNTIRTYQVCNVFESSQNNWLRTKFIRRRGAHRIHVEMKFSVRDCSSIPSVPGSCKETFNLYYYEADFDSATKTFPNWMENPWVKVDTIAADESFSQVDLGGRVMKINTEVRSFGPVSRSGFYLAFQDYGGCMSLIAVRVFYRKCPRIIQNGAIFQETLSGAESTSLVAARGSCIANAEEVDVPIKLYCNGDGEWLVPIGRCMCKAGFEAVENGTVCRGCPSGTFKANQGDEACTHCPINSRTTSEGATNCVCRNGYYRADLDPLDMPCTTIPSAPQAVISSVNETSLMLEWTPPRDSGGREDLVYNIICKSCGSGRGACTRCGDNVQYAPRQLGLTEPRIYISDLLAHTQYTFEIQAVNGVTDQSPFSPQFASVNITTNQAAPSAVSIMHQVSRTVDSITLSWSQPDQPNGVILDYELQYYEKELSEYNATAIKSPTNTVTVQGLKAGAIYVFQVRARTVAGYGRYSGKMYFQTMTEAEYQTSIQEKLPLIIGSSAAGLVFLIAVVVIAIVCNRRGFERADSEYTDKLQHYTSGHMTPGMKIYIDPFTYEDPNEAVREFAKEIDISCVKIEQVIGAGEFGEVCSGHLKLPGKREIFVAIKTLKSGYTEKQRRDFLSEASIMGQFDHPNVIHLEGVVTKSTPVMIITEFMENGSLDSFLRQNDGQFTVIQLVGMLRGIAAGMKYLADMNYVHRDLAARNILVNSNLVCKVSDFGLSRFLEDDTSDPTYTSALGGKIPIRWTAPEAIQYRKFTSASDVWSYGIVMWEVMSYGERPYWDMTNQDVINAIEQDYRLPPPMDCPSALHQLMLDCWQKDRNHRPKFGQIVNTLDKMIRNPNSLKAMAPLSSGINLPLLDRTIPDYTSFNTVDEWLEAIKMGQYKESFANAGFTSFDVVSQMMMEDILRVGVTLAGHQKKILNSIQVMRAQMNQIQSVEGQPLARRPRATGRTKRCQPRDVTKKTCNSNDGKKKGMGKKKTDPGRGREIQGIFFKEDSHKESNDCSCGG

[5] = biological target: T3, cGMP-dependent protein kinase 1 (Homo sapiens) (UniProt Q13976); test: Selectivity interaction (KinomeScan (DiscoverX)) EUB0000595a PRKG1; conditions: at 10 µM
T3 sequence (whole entry): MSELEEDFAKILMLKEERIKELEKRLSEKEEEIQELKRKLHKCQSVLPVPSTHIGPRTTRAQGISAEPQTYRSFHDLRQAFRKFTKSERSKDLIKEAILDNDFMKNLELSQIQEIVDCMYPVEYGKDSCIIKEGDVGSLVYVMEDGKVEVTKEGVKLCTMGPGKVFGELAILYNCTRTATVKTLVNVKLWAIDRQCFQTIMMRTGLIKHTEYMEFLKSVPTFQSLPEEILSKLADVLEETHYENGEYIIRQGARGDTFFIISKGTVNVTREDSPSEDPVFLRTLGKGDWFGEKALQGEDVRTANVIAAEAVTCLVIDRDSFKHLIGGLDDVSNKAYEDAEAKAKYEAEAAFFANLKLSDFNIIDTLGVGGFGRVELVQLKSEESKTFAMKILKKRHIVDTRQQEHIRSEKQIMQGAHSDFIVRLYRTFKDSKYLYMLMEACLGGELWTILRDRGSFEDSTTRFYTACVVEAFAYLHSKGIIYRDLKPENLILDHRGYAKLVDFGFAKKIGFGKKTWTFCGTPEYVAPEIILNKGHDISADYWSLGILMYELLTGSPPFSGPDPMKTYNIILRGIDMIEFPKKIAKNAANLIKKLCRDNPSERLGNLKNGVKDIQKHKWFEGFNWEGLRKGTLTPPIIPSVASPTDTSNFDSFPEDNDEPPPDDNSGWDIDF

[6] = biological target: Serine/threonine-protein kinase mTOR (Homo sapiens, UniProt P42345); test: Selectivity interaction (KinomeScan (DiscoverX)) EUB0000595a MTOR; conditions: at 10 µM

Compound: CCN(CC)CCCCNc1ncc2cc(-c3cc(OC)cc(OC)c3)c(NC(=O)NC(C)(C)C)nc2n1
- % of control [1]: 100%
- % of control [2]: 100%

Compound: CNC(=O)Nc1ccc(-c2nc(N3CC4CCC(C3)O4)c3cnn(C4CCC5(CC4)OCCO5)c3n2)cc1
- % of control [3]: 94%
- % of inhibition [4]: 6%

Compound: COCC(=O)NC/C=C/c1ccc2ncnc(Nc3ccc(Oc4ccc(C)nc4)c(C)c3)c2c1 [CP-724714]
- % of control [5]: 100%
- % of control [6]: 79%

— ChEMBL document CHEMBL5465560, “Selectivity Literature for EUbOPEN Chemogenomic Library” (2024)
